The structures appear in SMILES notation.

Experimental findings from patent publication US20230398133A1, “USE OF B-CELL LYMPHOMA 2 (BCL-2) INHIBITOR AND PHARMACEUTICAL COMPOSITION FOR TREATING CELLULAR SENESCENCE-RELATED SKIN DISEASES” (Xeon Biopharmaceutical Limited, priority 2020, published 2023) are described below.

Data set [1] has as its system imiquimod-induced psoriasis mouse model. The experiment in a line: Subcutaneous injection of ABT-737 injection in imiquimod-induced psoriasis mouse model (Example 5). It counts as in vivo. The settings on record: subcutaneous injection 25 mg/kg/day. On the procedure: Effects of subcutaneous injection of 2.5 mg/ml BCL-2 inhibitor (ABT-737 injection) on imiquimod-induced psoriasis mouse model were studied.
16 healthy female Balb/c mice at the age of 8 weeks with a body weight of 20±2 g were taken, and depilated by 2×2 cm^2 on the back of the torso. After 24 h of depilation, it was confirmed that there was no abnormal change in depilated areas, and the mice were randomly divided into 4 groups, including: (1) a normal control group (3 mice): no special operations were conducted; (2) a psoriasis mouse model group (3 mice): psoriasis model was induced by external application of imiquimod; (3) a group of subcutaneous injection of ABT-737 injection (Example 1) to treat psoriasis mouse model (hereinafter referred to as ABT-737 subcutaneous injection group, 5 mice): psoriasis model was induced by external application of imiquimod, and subcutaneous injection of 25 mg/kg/day ABT-737 was conducted for treatment (that is, 200 μl of 2.5 mg/ml ABT-737 injection was given to the above-mentioned mice); (4) a group of subcutaneous injection of blank injection (Example 3) to treat psoriasis mouse model (hereinafter referred to as blank injection for subcutaneous injection group, 5 mice): psoriasis model was induced by external application of imiquimod, and subcutaneous injection of blank injection was conducted in an equal volume with the ABT-737 subcutaneous injection group.
Except for the normal control group, the above-mentioned mice are all prepared with imiquimod-induced psoriasis models: 62.5 mg of 5% imiquimod (Sichuan Med Shine Pharmaceutical Co., Ltd.) was applied evenly with a cotton swab on the depilated areas on the back of the torso of the mouse, by once a day for 7 consecutive days with an interval of 24 h. After the modeling, the skin of the mouse back modeling in the psoriasis model group was taken for tissue paraffin embedding and routine section for HE staining observation. Compared with the normal control group, the model is established based on histological changes such as parakeratosis and spinous layer hypertrophy.
Immunohistochemical staining of p16, p21 and CD4 was conducted at the same time. The ratio of p16 and p21 positive cells of skin cellular senescence-related molecules between each group was compared under a multispectral microscope, and the infiltration degree of CD4^+ T cells in the skin between each group was compared (FIG. 3). • (3) In addition, the skin specimens of the back modeling sites of the torso of a total of 10 mice in the ABT-737 subcutaneous injection group and the blank injection for subcutaneous injection group were taken, added to an RNA protection solution, cut and ground to prepare a single cell suspension. […]

For data set [2] the test system is unchanged. Put plainly: External application of ABT-737 gel and intraperitoneal injection of ABT-737 injection in imiquimod-induced psoriasis mouse model (Example 6). The conditions noted are these: intraperitoneal injection 25 mg/kg/day. It is filed as in vivo. On the procedure: Effects of external application of BCL-2 inhibitor ABT-737 gel (Example 2) and intraperitoneal injection of 2.5 mg/ml BCL-2 inhibitor ABT-737 injection (Example 1) on imiquimod-induced psoriasis mouse model was studied.
19 healthy female Balb/c mice at the age of 8 weeks with a body weight of 20±2 g were taken, and depilated by 2×2 cm^2 on the back of the torso. After 24 h of depilation, it was confirmed that there was no abnormal change in depilated areas, and the mice were randomly divided into 5 groups, including: (1) a psoriasis mouse model group (3 mice): psoriasis model was induced by external application of imiquimod; (2) a group external application of ABT-737 gel (Example 2) for treating psoriasis mouse model (hereinafter referred to as ABT-737 gel treatment group, 5 mice): psoriasis model was induced by external application of imiquimod, and each mouse was treated with ABT-737 gel 0.5 g/day for external application; (3) a group of external application of blank gel (Example 4) to treat the psoriasis mouse model (hereinafter referred to as the blank gel control group, 5 mice): the psoriasis model was induced by external application of imiquimod, and each mouse was treated with blank gel the same amount as the ABT-737 treatment group by external application; (4) a group of intraperitoneal injection of BCL-2 inhibitor ABT-737 injection (Example 1; hereinafter referred to as ABT-737 intraperitoneal injection treatment group, 3 mice): psoriasis model was induced by external application of imiquimod, and each mouse was treated by intraperitoneal injection of 25 mg/kg/day of ABT-737 (that is, 200 μl of 2.5 mg/ml ABT-737 injection was given to the above-mentioned mice); (5) a group of blank injection for intraperitoneal injection (Example 3; hereinafter referred to as blank injection for intraperitoneal injection group, 3 mice): psoriasis model was induced by external application of imiquimod, and each mouse was treated by intraperitoneal injection of 200 μl of blank injection. […]

The mark [3] stands for this setting: vs blank injection for subcutaneous injection group, FIG. 3.

For the compound `CN(C)CC[C@H](CSc1ccccc1)Nc1ccc(S(=O)(=O)NC(=O)c2ccc(N3CCN(Cc4ccccc4-c4ccc(Cl)cc4)CC3)cc2)cc1[N+](=O)[O-]` [ABT-737], in data set [1] (FIG. 2), the “dermal inflammatory cells (HE staining)” value is on record as “significantly reduced”, the “downward extension of epidermal protrusions on the back skin lesions (HE staining)” value is listed as “significantly reduced” and the “spinous cell layer (HE staining)” value is “thinned”. In addition, in data set [1] (conclusion from spleen and DLN T cell subsets), the systemic damage entry was “without any systemic damage”. The “appearance of skin at the modeling site: skin swelling, skin thickening and scales” value in data set [1] (vs blank injection for subcutaneous injection group and psoriasis model group, FIG. 1) is “significant improvement”. Besides, in data set [1] (setting [3]), the “proportion of CD4+ cells infiltrated by dermal inflammation (immunohistochemistry)” value is “significantly reduced”; the “proportion of senescent cells staining positive in p16 and p21 in paraffin sections of skin lesions (immunohistochemistry)” value is “significantly reduced”. Moreover, the “mRNA expression levels of genes corresponding to P16, P21, BCL-2, INF-7 and IL17A in skin (real-time quantitative PCR)” value in data set [1] (vs blank injection for subcutaneous injection group, FIG. 4) is on record as “decrease significantly”. The “improvement of the skin lesions of the mouse model (skin appearance)” value in data set [2] (FIG. 6) was “better than the psoriasis model group, the blank gel control group and the blank injection for intraperitoneal injection group, but is slightly inferior to the ABT-737 gel treatment group”. Besides, the “improvement of the skin lesions of the mouse model (HE pathological sections)” value in data set [2] (FIG. 7) was “better than the psoriasis model group, the blank gel control group and the blank injection for intraperitoneal injection group, but is slightly inferior to the ABT-737 gel treatment group”. In addition, the “reduction of p16, p21, CD4 and BCL2 positive cells (immunohistochemistry)” value in data set [2] (FIG. 8) is “better than the blank gel control group and the blank injection for intraperitoneal injection group, but is slightly inferior to the ABT-737 gel treatment group”.
